Measured values from patent publication US7456225B1, “Liver protection compounds of the cyclohexenone type from Antrodia camphorata” (Golden Biotechnology Corporation, priority 2007, dated 2008).
Marks after values point to notes of the source that are not given here.

Columns and labels:
[1] = tested on: CCl4 induced liver injury in rats; assay: Histological evaluation of liver injury (H&E, Jonker et al. 0-4 scale); format: in vivo, Sprague-Dawley (SD) rats; conditions: for Liver injury score: 0-4 scale, CCl4-treated rats, 8 weeks; for Liver injury +, counts of pathological rats: level 1 = +, slight; for Liver injury ++, counts of pathological rats: level 2 = ++, mild; for Liver injury +++, counts of pathological rats: level 3 = +++, moderate; for Liver injury ++++, counts of pathological rats: level 4 = ++++, remarkable
Method: (§1) The animal model was performed with five-week-old Sprague-Dawley (SD) rats purchased from BioLasco Taiwan Co., Ltd. Healthy rats weighing 220-270 g were chosen for experiment after observing for 2 weeks in the laboratory animal room. The rats were randomly divided into 6 groups (12 rats/group): normal (gp. A); control groups including model control (gp. B) and positive control (gp. C, animals receiving silymarin); treatment groups including animals receiving 300 mg/kg of cyclohexenone (gp. D), 1000 mg/kg of cyclohexenone (gp. E), and 3000 mg/kg of cyclohexenone (gp. F), as indicated in Table 1. Only normal group was not poisoned with CCl4. The body weights were recorded to calculate the dosage. […] It helps to remove toxins from liver cells by either neutralizing the toxicity of toxic compounds or competing with the binding sites in liver. It is a potent antioxidant, protects the liver from free radicals. It has been widely studied for treating various types of liver injury in animals and clinical trials. The beneficial effects on liver protection have made silymarin a good medicine for liver diseases and a drug in positive control group for the animal model of liver injury.
(§2) Rats in normal group (group A) were fed with corn oil (Sigma chemical co.) by means of stomach tubes. Carbon tetrachloride (Shimakyu, Osaka, Japan) was administered to groups B to F via stomach tubes twice weekly (every Tuesday and Thursday afternoon) for 8 weeks, at a dose of 2 ml/kg of body weight, diluted with corn oil. Silymarin was prepared with saline in an amount of 200 mg/kg of body weight and was fed to rats of group C via a stomach tube. Cyclohexenone prepared from example 1 was mixed with saline, and fed in the amounts of 300 mg/kg, 1000 mg/kg and 3000 mg/kg of body weight to rats of group D to F via stomach tubes. The total feeding volume was estimated in the ratio of 10 ml/kg of body weight to groups C to F five days a week (every morning) for 8 weeks. The body weights of rats and the amounts of food intake in rats for each group were shown in FIG. 1 and FIG. 2, respectively.
The pathological changes of the liver surface were examined with naked eyes when the liver was taken out from rats, and then tissue sections were made. Half of each liver lobe was stored at −80° C. for antioxidant enzyme assay to follow up. The rest of liver tissues were fixed in 10% formalin for one week, embedded in paraffin cut into 2 μm sections, and stained with Hematoxyline-eosin (H&E) to visualize the lipid deposition, inflammation, cell necrosis and fibrosis, or stained with Masson's trichromic solution to visualize extracellular matrix and collagen fibers for liver fibrosis development. The pathological changes of liver injury were evaluated under light microscope (Opticphot-2, Nikon, Tokyo, Japan) after stained with the abovementioned solution.
Assessment of pathologic score in the chronic liver damage, the extent of inflammation, vacuolar degeneration, liver cell necrosis and bile duct proliferation were graded semi-quantitatively on a “0” to “4” scale (level 0=−, none, level 1=+, slight, level 2=++, mild, level 3=+++, moderate, and level 4=++++, remarkable, according to Jonker et al. (Jonker, A. M., Dijkhuis, F. W., Boes, A., Hardonk, M. J. and Grond J. 1992. Immunohistochemical study of extracellular matrix in acute galactosamine hepatitis in rats. Hepatology. 15(3):423-31).

[2] = tested on: CCl4-induced liver injury in rats; assay: Weights of liver, kidney and spleen relative to body weight after CCl4-induced liver injury; format: in vivo, Sprague-Dawley (SD) rats; conditions: CCl4-treated rats, 8 weeks
Method: as §1, §2
All rats were sacrificed at the end of the 8th week of experiment. The weights of liver, kidney and spleen were recovered and weighted and compared with the body weights to calculate the ratios and observe the effects of cyclohexenone from Antrodia camphorata to CCl4 treatment. All values are expressed as mean ±SD, which were evaluated using One-way Analysis of Variance. Those with significant differences were further tested with the Least Significant Difference Test (LSD) or Student t-test to compare cyclohexenone treatment groups and normal groups, positive control and model groups. P<0.05 was selected as criterion for statistical significance in all cases.

COC1=C(OC)C(O)C(C/C=C(\C)CC/C=C(\C)CCC=C(C)C)C(C)C1=O (centres unmarked) [Cyclohexenone from Antrodia camphorata, 4-hydroxy-2,3-dimethoxy-6-methyl-5(3,7,11-trimethyl-dodeca-2,6,10-trienyl)-cyclohex-2-enone]
Liver injury score ([1]; cyclohexenone 300 mg/kg): 1.8*^a | Liver injury score ([1]; cyclohexenone 300 mg/kg, listed as cyclohexenone from Antrodia camphorata): 1.8 | Liver injury score ([1]; cyclohexenone 1000 mg/kg): 2.0*^a | Liver injury score ([1]; cyclohexenone 1000 mg/kg, listed as cyclohexenone from Antrodia camphorata): 2.0 | Liver injury score ([1]; cyclohexenone 3000 mg/kg): 2.3*^a | effects in liver injury and liver fibrosis compared with silymarin ([1]; CCl4 treated rats fed with different amount of cyclohexenone (300, 1000, 3000 mg/kg)): better effects than silymarin | Liver injury +, counts of pathological rats ([1]; cyclohexenone 300 mg/kg): 5 | Liver injury +, counts of pathological rats ([1]; cyclohexenone 1000 mg/kg): 3 | Liver injury +, counts of pathological rats ([1]; cyclohexenone 3000 mg/kg): 2 | Liver injury ++, counts of pathological rats ([1]; cyclohexenone 300 mg/kg): 6 | Liver injury ++, counts of pathological rats ([1]; cyclohexenone 1000 mg/kg): 6 | Liver injury ++, counts of pathological rats ([1]; cyclohexenone 3000 mg/kg): 6 | Liver injury +++, counts of pathological rats ([1]; cyclohexenone 1000 mg/kg): 1 | Liver injury +++, counts of pathological rats ([1]; cyclohexenone 3000 mg/kg): 1 | Liver injury ++++, counts of pathological rats ([1]; cyclohexenone 300 mg/kg): 1 | Liver injury ++++, counts of pathological rats ([1]; cyclohexenone 1000 mg/kg): 1 | Liver injury ++++, counts of pathological rats ([1]; cyclohexenone 3000 mg/kg): 2 | kidney to body weight ratio ([2]; cyclohexenone 300 mg/kg): 0.68 ± 0.06 % | liver to body weight ratio ([2]; cyclohexenone 300 mg/kg): 3.29 ± 0.35% | spleen to body weight ratio ([2]; cyclohexenone 300 mg/kg): 0.20 ± 0.05 % | kidney to body weight ratio ([2]; cyclohexenone 1000 mg/kg): 0.69 ± 0.13% | liver to body weight ratio ([2]; cyclohexenone 1000 mg/kg): 3.20 ± 0.47 % | spleen to body weight ratio ([2]; cyclohexenone 1000 mg/kg): 0.22 ± 0.06 % | kidney to body weight ratio ([2]; cyclohexenone 3000 mg/kg): 0.73 ± 0.08 % | liver to body weight ratio ([2]; cyclohexenone 3000 mg/kg): 3.65 ± 0.53 % | spleen to body weight ratio ([2]; cyclohexenone 3000 mg/kg): 0.30 ± 0.10 %
